# “Also recorded” adds a separate entry of the source.
# What was measured:
# [1] = tested on: gram-negative bacteria and gram-positive bacteria; test: MIC/MBC test, summary over all tested bacteria; format: cell-based; settings: range over all gram-negative and gram-positive bacteria of Table 1
# Experimental: (§1) 1 mL of a fresh suspension of bacteria (1×10^9 CFU) at the logarithmic growth stage was added into 100 mL containing different concentrations (50 mg/mL, 25 mg/mL, 12.5 mg/mL, 6.25 mg/mL, 3.125 mg/mL, 1.5625 mg/mL, 0.78125 mg/mL, 0.390625 mg/mL) of melatonin. A melatonin (MT)-free solution diluted with DMSO was used as a control group. The samples were shaken at 37° C. and a rotation speed of 120 r/min with protection from light for 12 hours, and then subjected to detection of the minimal inhibitory concentration (MIC) of MT on bacteria. Then, 0.1 mL of the aforementioned transparent bacterial solution was pipetted onto a sterilized agar plate of a specific culture medium and coated evenly, incubated in an incubator at 37° C. for 24 hours, and then subjected to detection of the minimum bactericidal concentration (MBC) of MT on pathogens, wherein the minimum concentration of MT at which no bacterium grew was the MBC of MT on pathogens. Each experiment was carried out for 3 times, and each group was set in triplicate.
# [2] = target: T1, citrate synthase in Pseudomonas aeruginosa (Pseudomonas aeruginosa, UniProt P14165); test: Citrate synthase activity of bacteria after treatment; format: cell-based; settings: MT 1-3 mg/mL, 12 h, FIG. 28
# T1 construct: The bacterial cells were then collected and determined for citrate synthase activity according to the protocol of the instructions for the kit; endogenous in cells; host or cells: Pseudomonas aeruginosa culture
# Experimental: (§2) Further, 1 mL of Klebsiella pneumoniae, Pseudomonas aeruginosa, Diplococcus pneumoniae and Streptococcus pneumoniae at the logarithmic growth stage was added into 100 mL of fresh and sterile Martin broth liquid medium containing different concentrations of melatonin and citric acid (MT-1 mg/mL, MT-2 mg/mL, MT-3 mg/mL, CA-1 mg/mL, CA-2 mg/mL, CA-3 mg/mL, MT-1 mg/mL-CA-1 mg/mL, MT-2 mg/mL-CA-2 mg/mL, MT-3 mg/mL-CA-3 mg/mL) added was. Melatonin-free DMSO was used as the solvent control group, and the bacterial cells were cultured in a constant-temperature shaker at 37° C. and 220 rpm for 12 h. Thereafter, 1 mL of the bacterial solution was pipetted and centrifuged at 3000 r/min for 10 minutes. The bacterial cells were then collected and determined for citrate synthase activity according to the protocol of the instructions for the kit. Each experiment was repeated three times, and each group was set in triplicate.
# [3] = tested on: citrate synthase in Klebsiella pneumoniae; test: as above; format: cell-based; settings: MT 1-3 mg/mL, 12 h, FIG. 28
# Experimental: as §2
# [4] = tested on: Listeria monocytogenes (ATCC53005); test: MIC/MBC bacteriostatic and bactericidal test; format: cell-based
# Experimental: as §1
# [5] = tested on: Avianpathogenic Escherichia coli; test: MIC/MBC bacteriostatic and bactericidal test; format: cell-based; settings: 12 h
# Experimental: as §1
# [6] = tested on: Enterobacter sakazakii; test: MIC/MBC bacteriostatic and bactericidal test; format: cell-based; settings: Cronobacter sakazakii
# Experimental: as §1
# [7] = tested on: Pseudomonas aeruginosa; test: MIC/MBC bacteriostatic and bactericidal test; format: cell-based
# Experimental: as §1
# [8] = tested on: Klebsiella pneumoniae; test: MIC/MBC bacteriostatic and bactericidal test; format: cell-based
# Experimental: as §1
# [9] = tested on: Salmonella enteritidis (ATCC85090); test: MIC/MBC bacteriostatic and bactericidal test; format: cell-based; settings: Salmonella enterica
# Experimental: as §1
# [10] = tested on: Escherichia coli C83902 (ATCC72864); test: MIC/MBC bacteriostatic and bactericidal test; format: cell-based
# Experimental: as §1
# [11] = tested on: Pneumococcus; test: MIC/MBC bacteriostatic and bactericidal test; format: cell-based
# Experimental: as §1
# [12] = tested on: Mannheimia haemolytica; test: MIC/MBC bacteriostatic and bactericidal test; format: cell-based
# Experimental: as §1
# [13] = tested on: Acinetobacter baumannii; test: MIC/MBC bacteriostatic and bactericidal test; format: cell-based
# Experimental: as §1
# [14] = tested on: Lactobacillus johnsonii; test: MIC/MBC bacteriostatic and bactericidal test; format: cell-based
# Experimental: as §1
# [15] = tested on: Pasteurella multocida; test: MIC/MBC bacteriostatic and bactericidal test; format: cell-based
# Experimental: as §1
# [16] = tested on: Bovine meningitic Escherichia coli; test: MIC/MBC bacteriostatic and bactericidal test; format: cell-based
# Experimental: as §1
# [17] = tested on: Streptococcus pneumoniae; test: MIC/MBC bacteriostatic and bactericidal test; format: cell-based
# Experimental: as §1
# [18] = tested on: Staphylococcus aureus (ATCC25923); test: MIC/MBC bacteriostatic and bactericidal test; format: cell-based
# Experimental: as §1
# [19] = tested on: Bacillus cereus; test: MIC/MBC bacteriostatic and bactericidal test; format: cell-based
# Experimental: as §1
# [20] = tested on: Pasteurella multocida; test: LIVE/DEAD BacLight integrity of bacterial cell membrane; format: cell-based; settings: melatonin greater than the MIC concentration; 8, 12, 16 hours; time- and dose-dependent; FIG. 9
# Experimental: The integrity of bacterial cell membrane was evaluated with a LIVE/DEAD BacLight bacterial detection kit. 1 mL of bacterial culture was centrifuged at 3000 rpm for 10 minutes, the supernatant was removed, and the cells were washed with 10 mL of 0.85% NaCl for 3 times. The precipitated cells were resuspended and mixed with 1 mL of 0.85% NaCl. Then a mixture of SYTO9 fluorescent nucleic acid dye and propidium iodide mixed at the equal volume (3 μL each) was added into the resuspended solution. The mixture was thoroughly mixed and incubated in the dark at room temperature for 15 minutes. 5 μL of suspension of stained bacteria was added between a slide glass and a 18 mm square cover glass. (The combination of two nucleic acid dyes in this kit can distinguish living bacteria with intact membranes from dead bacteria with damaged membranes.) The living bacteria were dyed green with SYTO9, while the dead bacteria presented as red because of the interaction between propidium iodide and the double-stranded DNA of the bacteria. The fluorescence micrographs of stained bacteria were taken by OLYMPUS IX51 inverted microscope. Each experiment was carried out in triplicate for three times.
# [21] = tested on: citrate synthase in Streptococcus; test: Citrate synthase activity of bacteria after treatment; format: cell-based, Streptococcus pneumoniae; settings: MT 1-3 mg/mL, 12 h, also with exogenous citric acid, FIG. 28
# Experimental: as §2
# T1 sequence (P14165 whole entry): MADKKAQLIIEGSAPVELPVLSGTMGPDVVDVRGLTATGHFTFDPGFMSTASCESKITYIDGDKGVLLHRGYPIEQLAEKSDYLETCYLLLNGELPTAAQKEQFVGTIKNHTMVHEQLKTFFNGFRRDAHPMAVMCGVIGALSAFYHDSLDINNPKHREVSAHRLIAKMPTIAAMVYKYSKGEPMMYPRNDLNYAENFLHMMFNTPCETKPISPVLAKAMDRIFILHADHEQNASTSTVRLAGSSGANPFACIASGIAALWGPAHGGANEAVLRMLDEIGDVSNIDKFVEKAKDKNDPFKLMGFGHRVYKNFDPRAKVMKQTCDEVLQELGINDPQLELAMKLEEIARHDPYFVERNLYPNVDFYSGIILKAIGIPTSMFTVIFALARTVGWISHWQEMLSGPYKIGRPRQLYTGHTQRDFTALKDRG
smiles,measurement,setting,value
"COc1ccc2[nH]cc(CCNC(C)=O)c2c1 [melatonin, N-acetyl-5-methoxytryptamine]",MBC,[1],3.12 to 50 mg/mL
same,MIC,[1],1.56 to 50 mg/mL
same,enzyme activity of citrate synthase,[2],significantly reduces
same,enzyme activity of citrate synthase,[3],significantly reduces
same,MIC,"[4]; 37° C., 12 hours",12.5 mg/mL
same,MBC,"[4]; agar plate 37° C., 24 hours",50 mg/mL
same,MIC,[5],6.25 mg/mL
same,MIC,"[6]; 37° C., 12 hours",6.25 mg/mL
same,MBC,"[6]; agar plate 37° C., 24 hours",25 mg/mL
same,MIC,"[7]; 37° C., 12 hours",12.5 mg/mL
same,MBC,"[7]; agar plate 37° C., 24 hours",12.5 mg/mL
same,MIC,"[8]; 37° C., 12 hours",3.12 mg/mL
same,MBC,"[8]; agar plate 37° C., 24 hours",6.25 mg/mL
same,MIC,"[9]; 37° C., 12 hours",12.5 mg/mL
same,MBC,"[9]; agar plate 37° C., 24 hours",12.5 mg/mL
same,MIC,"[10]; 37° C., 12 hours",12.5 mg/mL
same,MBC,"[10]; agar plate 37° C., 24 hours",25 mg/mL
same,MIC,"[11]; 37° C., 12 hours",12.5 mg/mL
same,MBC,"[11]; agar plate 37° C., 24 hours",25 mg/mL
same,MIC,"[12]; 37° C., 12 hours",12.5 mg/mL
same,MBC,"[12]; agar plate 37° C., 24 hours",25 mg/mL
same,MIC,"[13]; 37° C., 12 hours",12.5 mg/mL
same,MBC,"[13]; agar plate 37° C., 24 hours",12.5 mg/mL
same,MIC,"[14]; 37° C., 12 hours",25 mg/mL
same,MBC,"[14]; agar plate 37° C., 24 hours",50 mg/mL
same,MIC,"[15]; 37° C., 12 hours",1.56 mg/mL
same,MBC,"[15]; agar plate 37° C., 24 hours, no bacterium grew",3.12 mg/mL
same,MIC,"[16]; 37° C., 12 hours",12.5 mg/mL
same,MBC,"[16]; agar plate 37° C., 24 hours",12.5 mg/mL
same,MIC,"[17]; 37° C., 12 hours",12.5 mg/mL
same,MBC,"[17]; agar plate 37° C., 24 hours",25 mg/mL
same,MIC,"[18]; 37° C., 12 hours",50 mg/mL
same,MBC,"[18]; agar plate 37° C., 24 hours",50 mg/mL
same,MIC,"[19]; 37° C., 12 hours",6.25 mg/mL
same,MBC,"[19]; agar plate 37° C., 24 hours",12.5 mg/mL
same,damage to bacterial cell membrane (SYTO9 / propidium iodide fluorescence),[20],the red fluorescence increased and the green fluorescence decreased; also recorded: damages the cell membrane
same,enzyme activity of citrate synthase,[21],not influenced
